The target of one data set is T1, Gal-4 hPPARα (Homo sapiens, UniProt Q07869).
T1 construct: Plasmids pGal4-hPPARα, pGal4-hPPARγ, pGal4-hPPARδ and pG5-TK-pGL3 were constructed as previously described by Staels, Bart, et al., Nature 1998 Jun; 25
T1 sequence (Q07869 200-468 limits assumed): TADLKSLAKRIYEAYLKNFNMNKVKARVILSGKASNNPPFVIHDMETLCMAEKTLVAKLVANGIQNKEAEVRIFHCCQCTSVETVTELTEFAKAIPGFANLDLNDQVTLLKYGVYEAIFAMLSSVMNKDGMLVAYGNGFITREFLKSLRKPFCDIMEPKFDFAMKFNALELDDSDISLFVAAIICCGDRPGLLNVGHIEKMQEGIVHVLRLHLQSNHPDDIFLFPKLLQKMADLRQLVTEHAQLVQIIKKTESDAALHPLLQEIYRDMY
The experiment in a line: Gal4-hPPARα transient transfection reporter assay in Cos cells. As to conditions: luciferase reporter, 24 hours with compound, scale 1-5, read-out: Gal-4 hPPAR α EC50 (scaled number). Format: cell-based. The method in brief:
(§1)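 Cos cells transiently co-transfected with Gal4-hPPAR expression plasmid, pG5-TK-pGL3 luciferase reporter and β-galactosidase control, then treated 24 h with increasing compound concentrations in DMEM containing 0.2% FCS. Luciferase normalised to β-galactosidase; EC50 from curve fit, at least three experiments.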

In another data set the target is T2, Gal-4 hPPARβ/δ (Homo sapiens, UniProt Q03181).
T2 construct: Plasmids pGal4-hPPARα, pGal4-hPPARγ, pGal4-hPPARδ and pG5-TK-pGL3 were constructed as previously described by Staels, Bart, et al., Nature 1998 Jun; 25
T2 sequence (Q03181 171-441 limits assumed): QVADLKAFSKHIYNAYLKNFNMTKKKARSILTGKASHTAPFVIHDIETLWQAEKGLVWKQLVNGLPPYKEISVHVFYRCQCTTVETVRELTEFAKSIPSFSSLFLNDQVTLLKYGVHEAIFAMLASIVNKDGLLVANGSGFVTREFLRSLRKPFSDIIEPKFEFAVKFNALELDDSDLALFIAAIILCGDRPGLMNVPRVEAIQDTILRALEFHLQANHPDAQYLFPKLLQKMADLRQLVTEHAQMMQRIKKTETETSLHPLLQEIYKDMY
The experiment in a line: Gal4-hPPARδ transient transfection reporter assay in Cos cells. The following applies: luciferase reporter, 24 hours with compound, scale 1-5, read-out: Gal-4 hPPAR β/δ EC50 (scaled number). Type of data set: cell-based. The method in brief: as §1

Another data set has as its target T3, Full Length hPPARα (Homo sapiens, UniProt Q07869).
T3 construct: Full Length; expressed in transfected cells; host or cells: Cos cells
T3 sequence (Q07869 1-468): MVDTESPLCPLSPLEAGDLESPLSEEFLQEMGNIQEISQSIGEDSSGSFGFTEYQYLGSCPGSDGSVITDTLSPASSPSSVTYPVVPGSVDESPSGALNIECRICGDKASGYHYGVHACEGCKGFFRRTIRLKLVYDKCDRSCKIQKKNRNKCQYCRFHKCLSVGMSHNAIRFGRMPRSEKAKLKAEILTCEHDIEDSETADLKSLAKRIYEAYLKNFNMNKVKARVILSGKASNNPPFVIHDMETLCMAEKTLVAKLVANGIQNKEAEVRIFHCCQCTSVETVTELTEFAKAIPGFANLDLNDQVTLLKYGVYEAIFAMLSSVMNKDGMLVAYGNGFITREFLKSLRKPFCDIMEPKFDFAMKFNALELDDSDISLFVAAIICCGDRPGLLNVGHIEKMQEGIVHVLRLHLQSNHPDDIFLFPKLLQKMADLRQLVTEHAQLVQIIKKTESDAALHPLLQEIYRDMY
The data set can be described thus: Full length hPPARα transfection assay. Format: cell-based. The following applies: full length receptor; read-out: Full Length hPPAR α EC50 (scaled number). The method in brief: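 Transiently transfected Cos cells (PEI, 3 h) with receptor expression and luciferase reporter plasmids plus β-galactosidase normalisation control; after replating, cells exposed 24 h to increasing compound concentrations in DMEM/0.2% FCS. Luciferase normalised to β-galactosidase; EC50 estimated from curves, reported as 1–5 score scale; ≥3 experiments.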

The test system of the next data set is pig liver esterase. The experiment in a line: Metabolism studies using pig liver esterase. Type of data set: in vitro ADME. As to conditions: 37° C.
Where [1] appears, read: pig liver esterase in human plasma protein solution.
Setting [2] is: pig liver esterase in phosphate buffer pH 7.4, no plasma, read-out: Pig Liver Esterase (t1/2 min.) (−) Plasma.
[3] abbreviates: pig liver esterase in human plasma protein solution, read-out: Pig Liver Esterase (t1/2 min.) (+) Plasma.

Where two headings read alike, the source gives them in different places.

`CCCCCCn1c(COC(=O)c2ccc(OC(C)(C)C(=O)O)cc2)nn(Cc2ccc(C)cc2)c1=O` [Compound 151, 2-(4-(((4-hexyl-1-(4-methylbenzyl)-5-oxo-4,5-dihydro-1H-1,2,4-triazol-3-yl)methoxy)carbonyl)phenoxy)-2-methylpropanoic acid]: the EC50 on Gal-4 hPPARα was 1 to 50 nM; on Gal-4 hPPARβ/δ it was over 1000 nM; on Full Length hPPARα, under 1 nM. Further, the “Pig Liver Esterase (t1/2 min.) (+) Plasma” value (“Pig Liver Esterase” below) in the data set on pig liver esterase (setting [1]) is “Stable”. The half-life at 4.9 µM in the data set with pig liver esterase (setting [2]) stood at 31 min.
As for `CCCCCCCCn1c(COC(=O)c2ccc(SC(C)(C)C(=O)O)cc2)nn(Cc2ccc(C)cc2)c1=O` [Compound 161, 2-methyl-2-(4-(((1-(4-methylbenzyl)-4-octyl-5-oxo-4,5-dihydro-1H-1,2,4-triazol-3-yl)methoxy)carbonyl)phenylthio)propanoic acid], the EC50 was 1 to 50 nM at Gal-4 hPPARα, 51 to 200 nM at Gal-4 hPPARβ/δ and under 1 nM on Full Length hPPARα. In addition, the results for the half-life at 4.9 µM in the data set with pig liver esterase (setting [3]) and in the data set with pig liver esterase (setting [2]) were over 120 min and under 5 min, respectively.
For the molecule `Cc1ccc(Cn2cc(COC(=O)c3ccc(SC(C)(C)C(=O)O)cc3)cn2)cc1` [Compound 3, 2-methyl-2-(4-(((1-(4-methylbenzyl)-1H-pyrazol-4-yl)methoxy)carbonyl)phenylthio)propanoic acid], the EC50 on Gal-4 hPPARα is 51 to 200 nM; at Gal-4 hPPARβ/δ it was over 1000 nM; at Full Length hPPARα, under 1 nM. Further, the half-life at 4.9 µM with pig liver esterase (setting [3]) was over 120 min; with pig liver esterase (setting [2]), 19 min.
Take `CCCCCCCn1c(COC(=O)c2ccc(OC(C)(C)C(=O)O)cc2)nn(Cc2ccc(C)cc2)c1=O` [Compound 192, 2-(4-(((4-heptyl-1-(4-methylbenzyl)-5-oxo-4,5-dihydro-1H-1,2,4-triazol-3-yl)methoxy)carbonyl)phenoxy)-2-methylpropanoic acid]: the EC50 was 1 to 50 nM on Gal-4 hPPARα, over 1000 nM on Gal-4 hPPARβ/δ and under 1 nM on Full Length hPPARα. Further, the “Pig Liver Esterase” value in the data set with pig liver esterase (setting [1]) was “Stable”. In addition, the half-life at 4.9 µM in the data set on pig liver esterase (setting [2]) turned out to be 27 min.
Regarding `CCCCCCn1c(COC(=O)c2ccc(SC(C)(C)C(=O)O)cc2)nn(Cc2ccc(C)cc2)c1=O` [Compound 160, 2-(4-(((4-hexyl-1-(4-methylbenzyl)-5-oxo-4,5-dihydro-1H-1,2,4-triazol-3-yl)methoxy)carbonyl)phenylthio)-2-methylpropanoic acid], the EC50 at Gal-4 hPPARα is 1 to 50 nM; at Gal-4 hPPARβ/δ, over 1000 nM; on Full Length hPPARα, under 1 nM. In addition, the half-life at 4.9 µM with pig liver esterase (setting [3]) is over 120 min; in the data set with pig liver esterase (setting [2]), under 5 min.
Turning to `CC(C)(Sc1ccc(C(=O)OCc2cn(Cc3ccc(C(F)(F)F)cc3)nn2)cc1)C(=O)O` [Compound 67, 2-methyl-2-(4-(((1-(4-(trifluoromethyl)benzyl)-1H-1,2,3-triazol-4-yl)methoxy)carbonyl)phenylthio)propanoic acid], the EC50 on Gal-4 hPPARα was 1 to 50 nM; on Gal-4 hPPARβ/δ it was over 1000 nM; on Full Length hPPARα, under 1 nM. The half-life at 4.9 µM with pig liver esterase (setting [3]) was determined as 121 min; in the data set on pig liver esterase (setting [2]) it was 21 min.
Consider `CCCCCCCn1c(COC(=O)c2ccc(SC(C)(C)C(=O)O)cc2)nn(Cc2ccc(C)cc2)c1=O` [Compound 191, 2-(4-(((4-heptyl-1-(4-methylbenzyl)-5-oxo-4,5-dihydro-1H-1,2,4-triazol-3-yl)methoxy)carbonyl)phenylthio)-2-methylpropanoic acid], for which the values for the EC50 on Gal-4 hPPARα, on Gal-4 hPPARβ/δ and at Full Length hPPARα were 1 to 50 nM, over 1000 nM and under 1 nM, respectively. Also, the “Pig Liver Esterase” value with pig liver esterase (setting [1]) is “Stable”. Further, in the data set on pig liver esterase (setting [2]), the half-life at 4.9 µM was under 5 min.
In the case of `CCCn1c(COC(=O)c2ccc(SC(C)(C)C(=O)O)cc2)nn(Cc2ccc(C(C)(C)C)cc2)c1=O` [Compound 159, 2-(4-(((1-(4-tert-butylbenzyl)-5-oxo-4-propyl-4,5-dihydro-1H-1,2,4-triazol-3-yl)methoxy)carbonyl)phenylthio)-2-methylpropanoic acid], the EC50 at Gal-4 hPPARα is 1 to 50 nM; at Gal-4 hPPARβ/δ, over 1000 nM; on Full Length hPPARα, 1 to 50 nM. Moreover, the values for the half-life at 4.9 µM in the data set with pig liver esterase (setting [3]) and in the data set with pig liver esterase (setting [2]) were 97 min and 3 min, respectively.
Turning to `CCCCCCn1c(COC(=O)c2ccc(OC(C)(C)C(=O)O)cc2)nn(Cc2ccc(C(C)(C)C)cc2)c1=O` [Compound 188, 2-(4-(((1-(4-tert-butylbenzyl)-4-hexyl-5-oxo-4,5-dihydro-1H-1,2,4-triazol-3-yl)methoxy)carbonyl)phenoxy)-2-methylpropanoic acid], the EC50 is 1 to 50 nM on Gal-4 hPPARα, over 1000 nM on Gal-4 hPPARβ/δ and under 1 nM at Full Length hPPARα. Further, the “Pig Liver Esterase” value in the data set with pig liver esterase (setting [1]) is given as “Stable”. Moreover, the half-life at 4.9 µM with pig liver esterase (setting [2]) stood at 9 min.
On the same counts, the results for `CCCCCCCn1c(COC(=O)c2ccc(OC(C)(C)C(=O)O)cc2)nn(Cc2ccc(C(C)(C)C)cc2)c1=O` [Compound 190, 2-(4-(((1-(4-tert-butylbenzyl)-4-heptyl-5-oxo-4,5-dihydro-1H-1,2,4-triazol-3-yl)methoxy)carbonyl)phenoxy)-2-methylpropanoic acid] are 1 to 50 nM, over 1000 nM, under 1 nM, “Stable” and 8 min.

For the origin of these results see patent publication US20100184815A1 (priority 2008, published 2010).
